{"source": "patent US20260345517A1", "about": "“DOSAGE REGIMENS FOR TREATING STARGARDT DISEASE” (Alkeus Pharmaceuticals, Inc., priority 2024, published 2026)", "test_system": "asymptomatic Stargardt disease patients", "assay": "TEASE-3: retinal sensitivity by fundus-tracking microperimetry", "assay_type": "in vivo, human", "conditions": "14 mg daily", "method": "FIG. 4 is a graph showing mean retinal sensitivity (dB) over time in three asymptomatic Stargardt disease patients taking gildeuretinol acetate 14 mg daily. Lines show mean retinal sensitivity of both eyes. Lines are piecewise linear regressions with a knot time of 12 months. Each symbol represents a retinal sensitivity measurement for each eye. Patient 1 retinal sensitivity was measured with a Nidek MP-1 (Nidek, Gamagori, Japan). Patients 2 and 3 retinal sensitivity was measured with the CenterVue Macular Integrity Assessment or MAIA (CenterVue, Padova, Italy).\nThe tolerability and effects of gildeuretinol acetate in Stargardt Disease (Clinical trial group 3 also known as TEASE-3) study was an open-label, multicenter, case control study designed to evaluate the efficacy and safety of gildeuretinol acetate on the progression of Stargardt disease in asymptomatic individuals. The trial was conducted at multiple sites in the United States. […]\nDisease progression was monitored by best-corrected visual acuity (BCVA) reported in number of Early Treatment Diabetic Retinopathy Study (ETDRS) letters, fundus autofluorescence (FAF) imaging, loss of photoreceptors (as measured by the ellipsoid zone band loss) by optical coherence tomography (OCT) according to literature (1-3) and retinal sensitivity by microperimetry. […]", "data": [{"compound": "CC(=O)OC/C=C(C)/C=C/C=C(C)/C=C/C1=C(C)CCCC1(C)C", "note": "[gildeuretinol acetate, C20-D3-retinol acetate]", "values": [{"measurement": "rate of change of mean retinal sensitivity", "setting": "first year of treatment", "result": "−3.1±1.5", "unit": "dB/year"}, {"measurement": "rate of change of mean retinal sensitivity (improvement)", "setting": "years following the first year", "result": "+0.93±0.7 dB/year"}]}]}
